Reference: patent publication US7893199B2, “Peptides having neutrophil-stimulating activity” (National University Corporation Gunma University, priority 2006, dated 2011)
Where two headings read alike, the source gives them in different places. Where a SMILES comes first, the peptide text is derived from it. Where no end group is shown, it is not given here.

How the values were obtained:
[1] = test system: HL-60 cells differentiated into the neutrophil-like cells; test: β-hexosaminidase-secreting activity of neutrophil-like differentiated HL-60 cells; assay type: cell-based, human; conditions: for Activity (β-hexosaminidase-secreting activity class): lowest concentration class at which secretion was confirmed
Source text: (1) Culture of Cell and Differentiation Into Neutrophil-like Cell
In this time, the cells were subcultured at a cell density of 1.0×10^5 cells/ml to 1.5×10^6 cells/ml, the number of cells was counted using a microscope, and the state of the cells was also confirmed.
The HL-60 cells were differentiated into neutrophil-like cells by setting the cell density in the flask to about 1.0×10^6 cells/ml, adding dibutylyl-cAMP (db-cAMP) as a differentiation-inducing agent so as to have a final concentration of 500 μM, and incubating the cells in the presence of CO2 at 37° C. for 3 days.
(2) Stimulation of Cell and Measurement of β-Hexosaminidase-secreting Activity
The cells were collected by centrifuging the suspension of the differentiated HL-60 cells (1,000 rpm, 5 minutes, 4° C.). After that, the following operation was repeated three times to wash the cells: Hepes buffered Hank's solution (HBHS) containing ice-cooled 0.1% BSA (1.2 mM CaCl2.2H2O, 5.4 mM KCl, 0.44 mM KH2PO4, 0.49 mM MgCl2.6H2O, 0.41 mM MgSO4.7H2O, 136.9 mM NaCl, 0.34 mM Na2HPO4, 10 mM Hepes, 4.2 mM NaHCO3, 5.5 mM D-glucose, pH 7.4) was added to the cells; the mixture was suspended by inversion; and the mixture was centrifuged again (1,000 rpm, 5 minutes, 4° C.). Subsequently, HBHS was added so that the mixture has a cell density of 5.6×10^6 cells/ml and suspended. Then, DNase I and cytochalasin B were each added so as to have a final concentration of 5 μg/ml, and the cell suspension was dispensed in an amount of 90 μl (5×10^5 cells) on ice. […] After the cell stimulation for 10 minutes, 100 μl of an ice-cooled stop solution (25 mM Tris, 123 mM NaCl, 2.7 mM KCl, pH 7.4) were added, and immediately, the mixture was centrifuged (5,000 rpm, 1 minute, 4° C.). 200 μl of the obtained supernatant were transferred to a new tube.
The amount of β-hexosaminidase released in the supernatant of the reaction solution was measured by an enzyme reaction using p-nitrophenyl-N-acetyl-μ-D-glucosaminide as a substrate (Non-patent Document 12). That is, the supernatant of the reaction solution was dispensed in an amount of 90 μl to a 96-well plate. 60 μl of a substrate solution (10 mM p-nitrophenyl-N-acetyl-μ-D-glucosaminide, 40 mM citrate, 70 mM Na2HPO4, pH 4.5) were added to each well, followed by incubation at 37° C. for 1 hour. After the reaction, 100 μl of a stop solution (0.4 M glycine, pH 10.7) were added to each well and a color of the released p-nitrophenol was developed. The color development was measured with a plate reader at adsorption at 405 nm (reference: 492 nm). The all amount of β-hexosaminidase contained in the cells was quantified by treating the cells with Triton X-100 having a final concentration of 0.05%. In addition, the amount of β-hexosaminidase secreted by stimulation of 10 μM fMLP was also measured, and the ratio of the secretion amount by stimulation with each peptide to the above sectretion amount by stimulation with fMLP.

[2] = test system: differentiated HL-60 cells; test: migration activity (Chemotaxis Index) of differentiated HL-60 cells; assay type: cell-based, human
Description: (3) Measurement of Migration Activity
The cells were collected by centrifuging the suspension of the differentiated HL-60 cells (1,000 rpm, 5 minutes, 4° C.). After that, the following operation was repeated three times to wash the cells: 10% FBS-RPMI1640 was added to the cells; the mixture was suspended by inversion; and the mixture was centrifuged again (1,000 rpm, 5 minutes, 4° C.). Then, a medium (10% FBS-RPMI1640) was added so that a cell density was 4×10^6 cells/ml, thereby a cell suspension was prepared. Subsequently, 1 ml of each peptide solution (dissolved in 10% FBS-RPMI 1640) was transferred to each well of a 24-well plate, and the plate was incubated at 37° C. for 20 minutes. After that, 500 μl of the cell suspension (2×10^6 cells) were put in Chemotaxicell (KURABO […] LTD., 3 μm) and the Chemotaxicell was set in a plate, followed by incubation in the presence of 5% CO2 at 37° C. for 1 hour. Then, the Chemotaxicell was removed and the solution in each well of the plate was pipetted. The cells migrated to the plate side was suspended well and the number of the cells were measured. Note that the migration activity by the peptide was represented by a ratio of the number of the cells to the number of the cells passing the Chemotaxicell at the time of non-stimulation (Chemotaxis Index, CI).

[3] = differentiated HL-60 cells, read-out: EC50, β-hexosaminidase-secreting activity
[4] = neutrophil-like differentiated HL-60 cells, Table 1, read-out: EC50 (μM), β-hexosaminidase-secreting activity
[5] = neutrophil-like differentiated HL-60 cells

Compound | EC50 [1, 3] | concentration of migration activity compared with that of β-hexosaminidase-secreting activity [2] | desensitization of migration activity with increasing concentration of the peptide [2] | β-hexosaminidase-secreting activity of C-terminally extended peptide compared to the peptide before the extension ([1]; differentiated HL-60 cells) | EC50 [1, 4] | Activity (β-hexosaminidase-secreting activity class) [1, 5]
MFPLARNALSSLKIQSILQSMARH [No. 048] | 0.1 µM | confirmed at the almost same concentration |  |  |  | 
CC[C@H](C)[C@H](NC(=O)[C@H](CS)NC(=O)[C@H](CC(C)C)NC(=O)[C@H](CCC(N)=O)NC(=O)[C@@H]1CCCN1C(=O)[C@H](CO)NC(=O)[C@H](Cc1ccccc1)NC(=O)[C@H](Cc1c[nH]cn1)NC(=O)[C@H](C)NC(=O)[C@H](CCCNC(=N)N)NC(=O)[C@H](CC(C)C)NC(=O)[C@H](CS)NC(=O)[C@H](Cc1c[nH]cn1)NC(=O)[C@H](CCCNC(=N)N)NC(=O)CNC(=O)[C@@H](NC(=O)[C@H](Cc1c[nH]cn1)NC(=O)[C@H](CCCNC(=N)N)NC(=O)[C@H](CC(C)C)NC(=O)[C@H](CC(C)C)NC(=O)[C@H](CC(C)C)NC(=O)[C@H](C)NC(=O)[C@H](C)NC(=O)[C@@H](N)CCSC)C(C)C)C(=O)N[C@@H](CCCNC(=N)N)C(=O)N[C@@H](CC(N)=O)C(=O)N[C@@H](C)C(=O)N[C@H](C(=O)N1CCC[C@H]1C(=O)N[C@@H](CC(C)C)C(=O)O)C(C)C [No. 023] (H-MAALLLRHVGRHCLRAHFSPQLCIRNAVPL-OH; N-terminus and C-terminus assumed) | 0.3 µM | confirmed at the almost same concentration | subjected to desensitization completely |  |  | 
MLWNLLALHQIGQRTISTASHRHFKNKVPEKQK [No. 032] | 0.15 µM | confirmed at the concentration lower than the concentration at which β-hexosaminidase-secreting activity was confirmed |  | higher activity compared to the peptides before the extension |  | 
046 (MLPAALLRRPGLGRLVRHARAY) [compound 046] |  |  |  |  | > 5 µM | ∘ (a peptide in which the β-hexosaminidase-secreting activity was confirmed at a concentration of 1 μM or less)
MAVVGVSSVSRLLGRSRPQLGRPM [compound 009] |  |  |  |  | 5 µM | ∘ (a peptide in which the β-hexosaminidase-secreting activity was confirmed at a concentration of 1 μM or less)
MAAVVALSLRRRLPATTLGGACLQASRG [compound 026] |  |  |  |  | 10 µM | ● (a peptide in which the β-hexosaminidase-secreting activity was confirmed at a concentration of 10 μM or less)
MSVLTPLLLRGLTGSARRLPVPRAKIHSLPPEGK [No. 033] | 6 µM |  |  | higher activity compared to the peptides before the extension |  | 
029 (MAAPRAGRGAGWSLRAWRALGGIRWGRRPRL) [compound 029] |  |  |  |  | > 50 µM | ● (a peptide in which the β-hexosaminidase-secreting activity was confirmed at a concentration of 10 μM or less)
MAAAALGQIWARKLLSVPWLLCGPRRY [compound 022] |  |  |  |  | 0.8 µM | ⊚ (a peptide in which the β-hexosaminidase-secreting activity was confirmed at a concentration of 300 nM or less)
MALVHKLLRGTYFLRKFSKPTSAL [compound 025] |  |  |  |  | 1.9 µM | ⊚ (a peptide in which the β-hexosaminidase-secreting activity was confirmed at a concentration of 300 nM or less)
MSVLTPLLLRGLTGSARRLPVPRAK [No. 007] | 8 µM |  |  |  |  | 
016 (MPLLRGRCPARRHYRRLALLGLQPAPRFA) [compound 016] |  |  |  |  | > 20 µM | ● (a peptide in which the β-hexosaminidase-secreting activity was confirmed at a concentration of 10 μM or less)
MASRLLRGAGTLAAQALRA [compound 004] |  |  |  |  | 15 µM | ● (a peptide in which the β-hexosaminidase-secreting activity was confirmed at a concentration of 10 μM or less)
MFPLVKSALNRLQVRSIQQTMARQSHQKRT [No. 031] | 0.2 µM | confirmed at the almost same concentration |  | higher activity compared to the peptides before the extension |  | 
MFRRPVLQVLRQFVRH [No. 037] | 0.11 µM | confirmed at the almost same concentration | subjected to desensitization completely |  |  | 
MLWNLLALHQIGQRTISTASHRHFKNKVPEKQK [compound 032] |  |  |  |  | 0.15 µM | ⊚ (a peptide in which the β-hexosaminidase-secreting activity was confirmed at a concentration of 300 nM or less)
MFRRPVLQVLRQFVRH [compound 037] |  |  |  |  | 0.11 µM | ⊚ (a peptide in which the β-hexosaminidase-secreting activity was confirmed at a concentration of 300 nM or less)
039 (MAASVVCRAATAGAQVLLRARRSPALLRTPALRS) [compound 039] |  |  |  |  | > 40 µM | ● (a peptide in which the β-hexosaminidase-secreting activity was confirmed at a concentration of 10 μM or less)
